Results taken from patent US20100197581A1, “NATIVE GP41 ASSAY” (priority 2007, published 2010).
Where two headings read alike, the source gives them in different places.

Key:
[1] = biological target: T1, gp41 (HR1 region) in native HIV-1 envelope spikes on HUTIIIB cells (Human immunodeficiency virus type 1 group M subtype B, UniProt P04578, V708A); type: binding, HIV-1 IIIB
[2] = biological target: T1, gp41 (HR1 region) in native HIV-1 envelope spikes on HUTIIIB cells; conditions: for activity in native gp41 assay (words, Table 4 results): reference compounds, flow cytometric- and HCS-based assay
Protocol: A serial dilution of test compounds, dissolved in DMSO, were diluted in culture medium (RPMI1640 with Ultraglutamin and Hepes w/o phenol red with 10% bovine calf serum (HyClone) and 20 μg/l gentamycin) with a final DMSO concentration of 1% and added to 384 well Cell Carrier plates (Evotec Technologies). Hut-IIIB cells (15000 cells/well) were added to these test plates and incubated for 30 min at room temperature. […] Finally, a solution of DRAQ 5 in PBS (final concentration of 5 μM) was added to the wells. After incubating the plates for 30′ at room temperature, the test plates were measured using the Opera™ confocal microscope high content screening platform (Evotec Technologies). After every addition, mixing of the well content was achieved by placing the 384w plates on a 384w shaker (MixMate, Eppendorf) for 5 seconds at 2000 rpm.
Image acquisition was performed using a 40× water immersion objective and simultaneous excitation of FITC and Draq5 fluorescence with a 488 and a 635 laser. […] Output parameters of the script included among others “mean (number of spots per cell)” and “mean (integrated spot signal)”. […] Furthermore, potential false positive results due to fluorescence or false negative results due to quenching can be assessed by comparing the inhibition curves generated by the two above mentioned output parameters.

[3] = small molecules, specificity experiments, flow cytometry, read-out: Native gp41 EC50
[4] = optimized protocol, […] C34-FITC, 75000 cells/well, compound added before sCD4, 3 independent experiments, read-out: EC50 flow cytometry

SMILES	EC50 [1, 3] [µM]	activity in native gp41 assay (words, Table 4 results) [2]	EC50 [1, 4] [µM]	further results
O=C(O)C1=CC(=C(c2ccc(O)c(C(=O)O)c2)c2ccc(O)c(C(=O)O)c2)C=CC1=O [ATA]	> 200			inhibition of C34-FITC binding ([1]; small molecules, specificity experiments): about 40%
Cc1cn([C@H]2C[C@H](N=[N+]=[N-])[C@@H](CO)O2)c(=O)[nH]c1=O [AZT]	> 200			
COc1ccnc2[nH]cc(C(=O)C(=O)N3CCN(C(=O)c4ccccc4)C[C@H]3C)c12 [BMS-806]	> 200	active	0.013	EC50 ([2]; read-out: EC50 HCS, mean number of spots per cell, 0.5 nM C34-FITC, compound added before sCD4, 3 independent experiments): 0.0043 µM; difference between addition of compound before, after or together with sCD4 induction ([1]; three orders of addition, FIG. 1): large increase of sensitivity when the compound was added before or together with sCD4
O=C1Nc2ccc(Cl)cc2[C@@](C#CC2CC2)(C(F)(F)F)O1 [EFV]	> 200	no activity	> 200	cytotoxicity in HCS native gp41 assay ([2]; Hut-IIIB cells, 200 μM): cytotoxicity
O=C(NCc1ccc(F)cc1)c1nc(N2CCCCS2(=O)=O)c2cccnc2c1O [L870,810]	> 200			
CC(C)(C)NC(=O)[C@@H]1C[C@@H]2CCCC[C@@H]2CN1C[C@@H](O)[C@H](Cc1ccccc1)NC(=O)[C@H](CC(N)=O)NC(=O)c1ccc2ccccc2n1 [SQV]	> 200			
